Source: US11767341B2, “Lincosamide antibiotics and uses thereof” (President and Fellows of Harvard College, priority 2017, dated 2023)
≈ marks a conversion by molar mass, not a printed value.

tested on: S. aureus MP-549 msr(a) USA 300; test: MIC determination; format: cell-based; details: Staphylococcus aureus, USA300, S. aureus MP-549 msr(a) USA 300

| Compound | MIC |
| --- | --- |
| CSC1O[C@H]([C@H](NC(=O)[C@H]2NC[C@@H]3CC(c4ccc(C#N)cc4)=CCO[C@H]32)[C@H](C)Cl)C(O)[C@@H](O)[C@H]1O (some centres unmarked) [FSA-511033] | 1 µg/mL (≈ 1.86 µM) |
| CSC1O[C@H]([C@H](NC(=O)[C@H]2NC[C@@H]3CC=CCO[C@@H]32)[C@H](C)Cl)C(O)[C@@H](O)[C@H]1O (some centres unmarked) [FSA-504059] | 2 µg/mL (≈ 4.58 µM) |
| CSC1O[C@H]([C@H](NC(=O)[C@H]2NC[C@@H]3C=C(c4ccc(C#N)cc4)CCO[C@@H]23)[C@H](C)Cl)C(O)[C@@H](O)[C@H]1O (some centres unmarked) [FSA-512077] | 0.25 µg/mL (≈ 0.465 µM) |

tested on: K. pneumoniae ATCC 10031; test: MIC determination; format: cell-based; details: Klebsiella pneumoniae, ATCC10031

| Compound | MIC |
| --- | --- |
| CSC1O[C@H]([C@H](NC(=O)[C@H]2NC[C@@H]3CC(c4ccc(C#N)cc4)=CCO[C@H]32)[C@H](C)Cl)C(O)[C@@H](O)[C@H]1O (some centres unmarked) [FSA-511033] | 64 µg/mL (≈ 119 µM) |
| CSC1O[C@H]([C@H](NC(=O)[C@H]2NC[C@@H]3CC=CCO[C@@H]32)[C@H](C)Cl)C(O)[C@@H](O)[C@H]1O (some centres unmarked) [FSA-504059] | > 64 µg/mL |

tested on: E. coli ATCC 25922; test: MIC determination; format: cell-based; details: Escherichia coli, ATCC25922

| Compound | MIC |
| --- | --- |
| CSC1O[C@H]([C@H](NC(=O)[C@H]2NC[C@@H]3CC=CCO[C@@H]32)[C@H](C)Cl)C(O)[C@@H](O)[C@H]1O (some centres unmarked) [FSA-504059] | > 64 µg/mL |

same assay, conditions: Escherichia coli, ATCC25922, E. coli ATCC 25922; read-out: MIC

| Compound | MIC |
| --- | --- |
| CSC1O[C@H]([C@H](NC(=O)[C@H]2NC[C@@H]3CC(c4ccc(C#N)cc4)=CCO[C@H]32)[C@H](C)Cl)C(O)[C@@H](O)[C@H]1O (some centres unmarked) [FSA-511033] | > 64 µg/mL |
| CSC1O[C@H]([C@H](NC(=O)[C@H]2NC[C@@H]3C=C(c4ccc(C#N)cc4)CCO[C@@H]23)[C@H](C)Cl)C(O)[C@@H](O)[C@H]1O (some centres unmarked) [FSA-512077] | > 256 µg/mL |

tested on: S. aureus ATCC 29213; test: MIC determination; format: cell-based; details: Staphylococcus aureus, ATCC29213, S. aureus ATCC 29213; read-out: MIC

| Compound | MIC |
| --- | --- |
| CSC1O[C@H]([C@H](NC(=O)[C@H]2NC[C@@H]3CC(c4ccc(C#N)cc4)=CCO[C@H]32)[C@H](C)Cl)C(O)[C@@H](O)[C@H]1O (some centres unmarked) [FSA-511033] | 0.5 µg/mL (≈ 0.929 µM) |
| CSC1O[C@H]([C@H](NC(=O)[C@H]2NC[C@@H]3CC=CCO[C@@H]32)[C@H](C)Cl)C(O)[C@@H](O)[C@H]1O (some centres unmarked) [FSA-504059] | 2 µg/mL (≈ 4.58 µM) |
| CSC1O[C@H]([C@H](NC(=O)[C@H]2NC[C@@H]3C=C(c4ccc(C#N)cc4)CCO[C@@H]23)[C@H](C)Cl)C(O)[C@@H](O)[C@H]1O (some centres unmarked) [FSA-512077] | 0.5 µg/mL (≈ 0.929 µM) |

tested on: S. pneumoniae ATCC 49619; test: MIC determination; format: cell-based; details: Streptococcus pneumoniae, ATCC49619; S. pneumoniae ATCC 49619; read-out: MIC

| Compound | MIC |
| --- | --- |
| CSC1O[C@H]([C@H](NC(=O)[C@H]2NC[C@@H]3CC(c4ccc(C#N)cc4)=CCO[C@H]32)[C@H](C)Cl)C(O)[C@@H](O)[C@H]1O (some centres unmarked) [FSA-511033] | ≤ 0.06 µg/mL |
| CSC1O[C@H]([C@H](NC(=O)[C@H]2NC[C@@H]3CC=CCO[C@@H]32)[C@H](C)Cl)C(O)[C@@H](O)[C@H]1O (some centres unmarked) [FSA-504059] | 0.25 µg/mL (≈ 0.572 µM) |
| CSC1O[C@H]([C@H](NC(=O)[C@H]2NC[C@@H]3C=C(c4ccc(C#N)cc4)CCO[C@@H]23)[C@H](C)Cl)C(O)[C@@H](O)[C@H]1O (some centres unmarked) [FSA-512077] | ≤ 0.12 µg/mL |

tested on: E. coli MP-74 LptD mutant; test: MIC determination; format: cell-based; details: Escherichia coli

| Compound | MIC |
| --- | --- |
| CSC1O[C@H]([C@H](NC(=O)[C@H]2NC[C@@H]3CC(c4ccc(C#N)cc4)=CCO[C@H]32)[C@H](C)Cl)C(O)[C@@H](O)[C@H]1O (some centres unmarked) [FSA-511033] | 64 µg/mL (≈ 119 µM) |
| CSC1O[C@H]([C@H](NC(=O)[C@H]2NC[C@@H]3CC=CCO[C@@H]32)[C@H](C)Cl)C(O)[C@@H](O)[C@H]1O (some centres unmarked) [FSA-504059] | > 64 µg/mL |
| CSC1O[C@H]([C@H](NC(=O)[C@H]2NC[C@@H]3C=C(c4ccc(C#N)cc4)CCO[C@@H]23)[C@H](C)Cl)C(O)[C@@H](O)[C@H]1O (some centres unmarked) [FSA-512077] | 64 µg/mL (≈ 119 µM) |

tested on: H. influenzae ATCC 49247; test: MIC determination; format: cell-based; details: Haemophilus influenzae, ATCC49247

| Compound | MIC |
| --- | --- |
| CSC1O[C@H]([C@H](NC(=O)[C@H]2NC[C@@H]3CC(c4ccc(C#N)cc4)=CCO[C@H]32)[C@H](C)Cl)C(O)[C@@H](O)[C@H]1O (some centres unmarked) [FSA-511033] | 64 µg/mL (≈ 119 µM) |
| CSC1O[C@H]([C@H](NC(=O)[C@H]2NC[C@@H]3CC=CCO[C@@H]32)[C@H](C)Cl)C(O)[C@@H](O)[C@H]1O (some centres unmarked) [FSA-504059] | > 64 µg/mL |

same assay, conditions: Haemophilus influenzae, ATCC49247; H. influenzae ATCC 49247; read-out: MIC

| Compound | MIC |
| --- | --- |
| CSC1O[C@H]([C@H](NC(=O)[C@H]2NC[C@@H]3C=C(c4ccc(C#N)cc4)CCO[C@@H]23)[C@H](C)Cl)C(O)[C@@H](O)[C@H]1O (some centres unmarked) [FSA-512077] | 128 µg/mL (≈ 238 µM) |

tested on: E. faecalis ATCC 29212; test: MIC determination; format: cell-based; details: Enterococcus faecalis, ATCC29212

| Compound | MIC |
| --- | --- |
| CSC1O[C@H]([C@H](NC(=O)[C@H]2NC[C@@H]3CC=CCO[C@@H]32)[C@H](C)Cl)C(O)[C@@H](O)[C@H]1O (some centres unmarked) [FSA-504059] | 32 µg/mL (≈ 73.2 µM) |

same assay, conditions: Enterococcus faecalis, ATCC29212, read-out: MIC

| Compound | MIC |
| --- | --- |
| CSC1O[C@H]([C@H](NC(=O)[C@H]2NC[C@@H]3CC(c4ccc(C#N)cc4)=CCO[C@H]32)[C@H](C)Cl)C(O)[C@@H](O)[C@H]1O (some centres unmarked) [FSA-511033] | 2 µg/mL (≈ 3.72 µM) |
| CSC1O[C@H]([C@H](NC(=O)[C@H]2NC[C@@H]3C=C(c4ccc(C#N)cc4)CCO[C@@H]23)[C@H](C)Cl)C(O)[C@@H](O)[C@H]1O (some centres unmarked) [FSA-512077] | 1 µg/mL (≈ 1.86 µM) |

tested on: S. pyogenes ATCC 19615; test: MIC determination; format: cell-based; details: Streptococcus pyogenes, ATCC19615; S. pyogenes ATCC 19615; read-out: MIC

| Compound | MIC |
| --- | --- |
| CSC1O[C@H]([C@H](NC(=O)[C@H]2NC[C@@H]3CC(c4ccc(C#N)cc4)=CCO[C@H]32)[C@H](C)Cl)C(O)[C@@H](O)[C@H]1O (some centres unmarked) [FSA-511033] | ≤ 0.06 µg/mL |
| CSC1O[C@H]([C@H](NC(=O)[C@H]2NC[C@@H]3CC=CCO[C@@H]32)[C@H](C)Cl)C(O)[C@@H](O)[C@H]1O (some centres unmarked) [FSA-504059] | 0.12 µg/mL (≈ 0.275 µM) |
| CSC1O[C@H]([C@H](NC(=O)[C@H]2NC[C@@H]3C=C(c4ccc(C#N)cc4)CCO[C@@H]23)[C@H](C)Cl)C(O)[C@@H](O)[C@H]1O (some centres unmarked) [FSA-512077] | ≤ 0.12 µg/mL |

tested on: E. coli MP-9 ΔTolC; test: MIC determination; format: cell-based; details: Escherichia coli

| Compound | MIC |
| --- | --- |
| CSC1O[C@H]([C@H](NC(=O)[C@H]2NC[C@@H]3CC(c4ccc(C#N)cc4)=CCO[C@H]32)[C@H](C)Cl)C(O)[C@@H](O)[C@H]1O (some centres unmarked) [FSA-511033] | 32 µg/mL (≈ 59.5 µM) |
| CSC1O[C@H]([C@H](NC(=O)[C@H]2NC[C@@H]3CC=CCO[C@@H]32)[C@H](C)Cl)C(O)[C@@H](O)[C@H]1O (some centres unmarked) [FSA-504059] | > 64 µg/mL |
| CSC1O[C@H]([C@H](NC(=O)[C@H]2NC[C@@H]3C=C(c4ccc(C#N)cc4)CCO[C@@H]23)[C@H](C)Cl)C(O)[C@@H](O)[C@H]1O (some centres unmarked) [FSA-512077] | 16 µg/mL (≈ 29.7 µM) |
